{"source": "patent US20240207265A1", "about": "“TREATMENT OF CNS DISEASES WITH sGC STIMULATORS” (Tisento Therapeutics Inc., priority 2021, published 2024)", "system": "cGMP", "assay": "cGMP concentration in rat CSF after single oral dose (CSF biomarker)", "format": "in vivo", "method": "Rats were administered a single dose of either vehicle or sGC stimulator (1, 3, 10 or 30 mg/kg). One, two and six hours after administration, CSF samples were collected and analyzed to determine cGMP and compound concentrations and plasma samples were collected and analyzed to determine compound concentration. Each rat was sampled one time or multiple times with 3 or more days in between each dosing. The day before the experiment rats were fasted overnight with ad libitum access to water.\nOn the day of the experiment, compound and cyclic guanosine monophosphate (cGMP) concentrations in rat CSF was determined following oral dosing. Male CD rats implanted with an intracisternal cannula (250-275 g) were used for these studies. Rats were single housed under controlled conditions of temperature (21±1° C.), relative humidity (36±1%) and placed in a 12-hr light-dark cycle (lights on at 6:00 AM and off at 6:00 PM) room at SmartLabs vivarium (21 Erie Street, Cambridge, MA) under protocol MIL-110. Animals were allowed ad libitum access to chow (LabDiet Prolab Isopro RMH 3000, St. Louis, MO) and water. The rats were dosed with 0 mg/kg (vehicle), 1 mg/kg, 3 mg/kg, 10 mg/kg, or 30 mg/kg of a compound of the invention formulated as a suspension in 0.5% methylcellulose, 0.5% Tween80 or as a solution in MilliQ water. […]\nPlasma and CSF samples were collected under isoflurane anesthesia as follows: samples of CSF and blood were collected at 1, 2, and 6 hours post-dosing. […] Plasma and CSF was collected and analyzed for the presence of a compound.\nThe compound of the invention, cGMP and the internal standard were extracted from plasma and CSF by precipitation. Samples were analyzed using liquid chromatography (LC) with tandem mass spectrometric detection (MS/MS) using electrospray ionization. […] CSF cGMP data were graphed using Graphpad Prism, version 8.4.3 and are expressed as means±S.E.M. Data were analyzed with a Mixed-effects analysis followed by Dunnett's multiple comparison test comparing to vehicle-treated rats within timepoint. […]"}
{"smiles": "Cc1cc(F)c(Cc2nc(-c3ncc(F)c(O)n3)cn3ccnc23)cc1F", "note": "[Compound I-14, 5-fluoro-2-(8-(2,5-difluoro-4-methylbenzyl)imidazo[1,2-a]pyrazin-6-yl)pyrimidin-4-ol]", "values": [{"measurement": "concentration of cGMP in rat CSF vs vehicle-treated rats", "setting": "1 mg/kg PO as sodium salt, two hours after dosing", "value": "significantly higher cGMP in CSF"}, {"measurement": "concentration of cGMP in rat CSF vs vehicle-treated rats", "setting": "3 mg/kg PO as sodium salt, one and two hours after dosing", "value": "significantly higher concentrations of cGMP in the CSF"}, {"measurement": "concentration of cGMP in rat CSF vs vehicle-treated rats", "setting": "10 or 30 mg/kg PO as sodium salt, 1, 2 and 6 hours postdose", "value": "significantly higher cGMP in the CSF"}]}
